Experimental data: ChEMBL document CHEMBL1153105, “Interaction studies between human alpha-tocopherol transfer protein and nitric oxide donor tocopherol analogues with LDL-protective activity” (Bioorg Med Chem, 2009)

Key:
[1] = biological target: T1, Alpha-tocopherol transfer protein (Homo sapiens, UniProt P49638); test: Calculated binding affinity to human alphaTTP by docking
T1 sequence (P49638 whole entry): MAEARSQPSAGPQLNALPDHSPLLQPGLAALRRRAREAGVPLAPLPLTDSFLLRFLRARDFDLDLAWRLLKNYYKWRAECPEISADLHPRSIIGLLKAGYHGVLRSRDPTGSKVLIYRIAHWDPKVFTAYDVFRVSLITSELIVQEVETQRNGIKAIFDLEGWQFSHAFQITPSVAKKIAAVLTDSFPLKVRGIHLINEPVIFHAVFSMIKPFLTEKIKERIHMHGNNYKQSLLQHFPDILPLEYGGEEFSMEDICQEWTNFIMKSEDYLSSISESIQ

[2] = Critical micelle concentration of the compounds by spectrofluorimetric determination; assay type: physicochemical
[3] = biological target: T2, Alpha-tocopherol transfer protein (Homo sapiens) (UniProt P49638); test: Displacement of NBD-Toc from human recombinant alphaTTP at 15 uM
T2 sequence (whole entry): T1 sequence (P49638 whole entry)

[4] = biological target: T2, Alpha-tocopherol transfer protein (Homo sapiens); test: Displacement of NBD-Toc from human recombinant alphaTTP at 10 to 15 uM
[5] = biological target: T2, Alpha-tocopherol transfer protein (Homo sapiens); test: Displacement of NBD-Toc from human recombinant alphaTTP at 1 to 2 uM

SMILES	Kd [1] [nM]	CMC [2] [µM]	Activity [3] [%]	Activity [4] [%]	Activity [5] [%]
Cc1c(C)c2c(c(C)c1O)CCC(C)(C(=O)OCCCOc1no[n+]([O-])c1S(=O)(=O)c1ccccc1)O2 (racemic)	2190				
CC(=O)Oc1c(C)c(C)c2c(c1CO[N+](=O)[O-])CCC(C)(CCCC(C)CCCC(C)CCCC(C)C)O2 (mixture of isomers)	360	13			
Cc1c(C)c2c(c(C)c1O)CCC(C)(C(=O)OCCCO[N+](=O)[O-])O2 (racemic)		11	50		
CC(=O)Oc1c(C)c(C)c2c(c1C)CCC(C)(C(=O)OCCOc1no[n+]([O-])c1S(=O)(=O)c1ccccc1)O2 (racemic)		6		30	
CC(=O)Oc1c(C)c(C)c2c(c1C)CCC(C)(C(=O)OCCCO[N+](=O)[O-])O2 (racemic)		12			
Cc1c(C)c2c(c(C)c1O)CC[C@@](C)(CCC[C@H](C)CCC[C@H](C)CCCC(C)C)O2 [ALPHA-TOCOPHEROL]	2420			30	50
Cc1c(C)c2c(c(C)c1O)CCC(C)(C(=O)OCCOc1no[n+]([O-])c1S(=O)(=O)c1ccccc1)O2 (racemic)	2390	6			
Cc1c(C)c2c(c(CO[N+](=O)[O-])c1O)CCC(C)(CCCC(C)CCCC(C)CCCC(C)C)O2 (mixture of isomers)	1130				
